The text below walks through data of patent US20120046301A1, “Substituted Cyclic Carboxamide and Urea Derivatives as Ligands of the Vanilloid Receptor” (Gruenenthal GmbH, priority 2010, published 2012).

In the first assay the test system is male mice (NMRI). Nature of the assay: Formalin test on mice (second phase). Type of assay: in vivo. The settings on record: dose 10.0 mg/kg. The procedure:
The investigation to determine the antinociceptic action of the compounds according to the invention is carried out in the formalin test on male mice (NMRI, 20 bis 30 g body weight, Iffa, Credo, Belgium).
According to D. Dubuisson et al., Pain 1977, 4, 161-174, in the formalin test the first (early) phases ([…] after the formalin injection) and the second (late) phase (15 to 60 minutes after the formalin injection) are different. The early phase, which is a direct reaction to the formalin injection, represents a model of acute pain, whereas the late phase is regarded as a model of persistent (chronic) pain (T. J. Coderre et al., Pain 1993, 52, 259-285). The corresponding literature descriptions are hereby incorporated by way of reference and count as part of the disclosure.
The compounds according to the invention are investigated in the second phase of the formalin test, in order to obtain information on the effects of substances on chronic/inflammation pain.
The administration time of the compounds according to the invention before the formalin injection is selected depending on the type of administration of the compounds according to the invention. The intravenous administration of 10 mg/kg body weight of the test substances is carried out 5 minutes before the formalin injection. […]
The nociceptive behaviour is then continuously assessed by observing the animals for an investigation period of 3 minutes in the (second) late phase of the formalin test (21 to 24 minutes after the formalin injection). The pain behaviour is quantified by counting the time in seconds during which the animals licked and bit the affected paw during the investigation period.
The comparison is made in each case with control animals, which receive instead of the compounds according to the invention a neutral vehicle (0.9% aqueous sodium chloride solution) before the formalin injection. Based on the quantification of the pain behaviour, the effect of the substance in the formalin test is measured as the change compared to the corresponding control. […]
Consider `CC(C)(C)c1cc(CNC(=O)N2CCN(c3ncccc3Cl)CC2)n(-c2cccc(Cl)c2)n1` [Example 2, N-((3-tert-butyl-1-(3-chlorophenyl)-1H-pyrazol-5-yl)methyl)-4-(3-chloropyridin-2-yl)piperazine-1-carboxamide], for which the “FTm, p.o. % effect @ dose (mg/kg)” value is reported as 1% @10.0.

Staying with this assay, now noted: dose 30.0 mg/kg.
As for `CC(C)(C)c1cc(CNC(=O)N2CCN(c3ncccc3Cl)CC2)n(-c2cccc(Cl)c2)n1` [Example 2, N-((3-tert-butyl-1-(3-chlorophenyl)-1H-pyrazol-5-yl)methyl)-4-(3-chloropyridin-2-yl)piperazine-1-carboxamide], the “FTm, p.o. % effect @ dose (mg/kg)” value came out at 36% @30.0.

Staying with this assay, now noted: dose 100.0 mg/kg.
For the compound `CC(C)(C)c1cc(CNC(=O)N2CCN(c3ncccc3Cl)CC2)n(-c2cccc(Cl)c2)n1` [Example 2, N-((3-tert-butyl-1-(3-chlorophenyl)-1H-pyrazol-5-yl)methyl)-4-(3-chloropyridin-2-yl)piperazine-1-carboxamide], the “FTm, p.o. % effect @ dose (mg/kg)” value worked out at 66% @100.0.

The next assay deals with T1, vanilloid receptor 1 (VR1/TRPV1 receptor) (Homo sapiens, UniProt Q8NER1).
T1 construct: expressed in transfected cells; host or cells: CHO K1 cells (ECACC), stably transfected
T1 sequence (Q8NER1 whole entry): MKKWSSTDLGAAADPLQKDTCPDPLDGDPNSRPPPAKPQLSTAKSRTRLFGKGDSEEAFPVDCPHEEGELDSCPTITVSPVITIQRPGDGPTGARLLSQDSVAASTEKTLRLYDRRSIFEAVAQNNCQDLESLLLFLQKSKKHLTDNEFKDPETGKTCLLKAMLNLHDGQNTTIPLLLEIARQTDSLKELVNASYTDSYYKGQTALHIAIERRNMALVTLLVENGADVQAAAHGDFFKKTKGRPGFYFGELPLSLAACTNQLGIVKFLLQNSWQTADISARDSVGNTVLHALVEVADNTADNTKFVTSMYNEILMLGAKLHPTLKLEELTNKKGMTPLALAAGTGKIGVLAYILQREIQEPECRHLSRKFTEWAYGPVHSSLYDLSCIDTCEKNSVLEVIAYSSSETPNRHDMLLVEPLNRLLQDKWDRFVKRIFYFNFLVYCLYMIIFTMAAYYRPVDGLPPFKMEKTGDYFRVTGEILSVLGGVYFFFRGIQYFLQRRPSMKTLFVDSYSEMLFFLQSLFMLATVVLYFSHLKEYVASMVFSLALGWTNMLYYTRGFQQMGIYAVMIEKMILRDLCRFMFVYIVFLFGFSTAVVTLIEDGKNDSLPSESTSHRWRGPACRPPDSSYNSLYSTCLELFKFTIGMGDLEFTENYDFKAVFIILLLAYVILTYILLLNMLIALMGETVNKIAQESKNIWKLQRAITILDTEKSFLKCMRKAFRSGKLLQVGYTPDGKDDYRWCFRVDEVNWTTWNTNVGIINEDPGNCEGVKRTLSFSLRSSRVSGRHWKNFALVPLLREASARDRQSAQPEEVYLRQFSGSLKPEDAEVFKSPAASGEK
Briefly: FLIPR assay, CHO K1 cells transfixed with the human VR1 gene, displacement of capsaicin (Pharmacological Method II). Format: cell-based. The settings on record: capsaicin (Cap) 100 nM, Ki from IC50 by Cheng-Prusoff. The procedure:
In addition compounds according to the invention of the general formula (I) may be preferred, that in the FLIPR assay with CHO K1 cells that have been transfixed with the human VR1 gene effect in a concentration of less than 2000 nM, preferably less than 1000 nM, particularly preferably less than 300 nM, most particularly preferably less than 100 nM, even more preferably less than 75 nM, still most preferably less than 50 nM, and most of all preferably less than 10 nM, a 50% displacement of capsaicin that is present in a concentration of 100 nM.
In this connection the Ca^2+ inflow is quantified in the FLIPR assay with the aid of a Ca^2+-sensitive dye (Type Fluo-4, Molecular Probes Europe BV, Leiden, Netherlands) in a fluorescent imaging plate reader (FLIPR, Molecular Devices, Sunnyvale, USA), as described hereinafter.
The agonistic and antagonistic action of the substances to be investigated on the vanilloid receptor (VR1) can also be determined with the following assay. According to this assay the Ca^2+ inflow through the channel is quantified in the Fluorescent Imaging Plate Reader (FLIPR, Molecular Devices, Sunnyvale, USA) with the aid of a Ca^2+ sensitive dye (Type Fluo-4, Molecular Probes, Europe BV, Leiden, Netherlands).
Chinese hamster ovary cells (CHO K1 cells, European Collection of Cell Cultures (ECACC) Great Britain) are stably transfixed with the VR1 gene. For the functional investigations these cells are plated out on poly-D-lysine-coated, black 96-well plates with a clear floor (BD Biosciences, Heidelberg, Germany) in a density of 25,000 cells/well. The cells are incubated overnight at 37° C. and 5% CO2 in a culture medium (Nutrient Mixture ‘am's F12, 10 Vol % FCS (fetal calf serum), 18 μg/ml L-proline. The following day the cells are incubated with Fluo-4 (Fluo-4 2 μM, Pluronic F127 0.01 Vol %, Molecular Probes in HBSS (Hank's buffered saline solution), Gibco Invitrogen GmbH, Karlsruhe, Germany) for 30 minutes at 37° C. The plates are then washed 3 times with HBSS buffer and, after a further incubation for 15 minutes at RT, used in the FLIPR assay for the Ca^2+ measurement. The Ca^2+-dependent fluorescence is in this connection measured both before and after addition of the substances to be investigated (wavelength λex=488 nm, λem=540 nm). The quantification is carried out by measuring the highest fluorescence intensity (FC, Fluorescence Counts) over time.
The FLIPR protocol consists of 2 additions of substances. First of all the compounds to be tested (10 μM) are pipetted onto the cells and the Ca^2+ inflow is compared with the control (capsaicin 10 μM) (% activation referred to the Ca^2+ signal after addition of 10 μM capsaicin). After 5 minutes' incubation 100 nM capsaicin are added and the inflow of Ca^2+ is again determined.
Desensitising agonists and antagonists lead to a suppression of the Ca^2+ inflow. The % inhibition compared to the maximum achievable inhibition with 10 μM capsaicin is calculated.
Starting from the percentage displacement caused by different concentrations of the compounds of the general formula I to be tested, IC50 inhibiting concentrations that produce a 50% displacement of capsaicin were calculated. K, values for the test substances were obtained by reconversion using the (Cheng, Prusoff; Biochem. Pharmacol. 22, 3099-3108, 1973) relationship.
Turning to `CC(C)(C)c1cc(CNC(=O)N2CCN(c3ncccc3Cl)CC2)n(-c2cccc(Cl)c2)n1` [Example 2, N-((3-tert-butyl-1-(3-chlorophenyl)-1H-pyrazol-5-yl)methyl)-4-(3-chloropyridin-2-yl)piperazine-1-carboxamide], the affinity corresponds to a Ki of 10 nM.
On the same count and under the same terms, as for `O=C(NCc1cc(C(F)(F)F)nn1-c1cccc(Cl)c1)N1CCN(c2ncccc2Cl)CC1` [Example 3, N-((1-(3-chlorophenyl)-3-(trifluoromethyl)-1H-pyrazol-5-yl)methyl)-4-(3-chloropyridin-2-yl)piperazine-1-carboxamide], the figure is 14 nM; as for `CC(C)(C)c1cc(CNC(=O)N2CCN(c3ccccc3F)CC2)n(-c2cccc(Cl)c2)n1` [Example 5, N-((3-tert-butyl-1-(3-chlorophenyl)-1H-pyrazol-5-yl)methyl)-4-(2-fluorophenyl)piperazine-1-carboxamide], 5 nM.
As to `Cc1c(C(F)(F)F)nn(-c2cccc(Cl)c2)c1CNC(=O)N1CCN(c2ncccc2Cl)CC1` [Example 9, N-((1-(3-chlorophenyl)-4-methyl-3-(trifluoromethyl)-1H-pyrazol-5-yl)methyl)-4-(3-chloropyridin-2-yl)piperazine-1-carboxamide], the Ki – broadly, a measure of affinity in units of concentration, obtained from inhibition or displacement – is 16 nM.
On the same count and under the same terms, as for `O=C(NCc1cc(C2CC2)nn1-c1cccc(Cl)c1)N1CCN(c2ncccc2Cl)CC1` [Example 10, N-((1-(3-chlorophenyl)-3-cyclopropyl-1H-pyrazol-5-yl)methyl)-4-(3-chloropyridin-2-yl)piperazine-1-carboxamide], the figure is 85 nM.
Same read-out and setting: as for `CCCCCn1nc(C(F)(F)F)cc1CNC(=O)N1CCN(c2ncccc2Cl)CC1` [Example 12, 4-(3-chloropyridin-2-yl)-N-((1-pentyl-3-(trifluoromethyl)-1H-pyrazol-5-yl)methyl)piperazine-1-carboxamide], the figure is 68 nM.
Consider `O=C(NCc1cc(C(F)(F)F)nn1-c1cccc(Cl)c1)N1CCC(c2ccccc2)CC1` [Example 26, N-((1-(3-chlorophenyl)-3-(trifluoromethyl)-1H-pyrazol-5-yl)methyl)-4-phenylpiperidine-1-carboxamide], for which affinity was put at a Ki of 27 nM.
The same measure, in the same setting: the result for `O=C(NCc1cc(C(F)(F)F)nn1-c1cccc(Cl)c1)N1CC=C(c2ccc(F)cc2)CC1` [Example 34, N-((1-(3-chlorophenyl)-3-(trifluoromethyl)-1H-pyrazol-5-yl)methyl)-4-(4-fluorophenyl)-5,6-dihydropyridine-1(2H)-carboxamide] reads 27 nM.
On the same count and under the same terms, as for `O=C(NCc1cc(C(F)(F)F)nn1-c1cccc(Cl)c1)N1CCN(c2ccccc2F)CC1` [Example 46, N-((1-(3-chlorophenyl)-3-(trifluoromethyl)-1H-pyrazol-5-yl)methyl)-4-(2-fluorophenyl)piperazine-1-carboxamide], the figure is 45 nM.
Regarding `O=C(NCc1cc(C(F)(F)F)nn1-c1cccc(Cl)c1)N1CCN(c2ccc(F)cc2)CC1` [Example 47, N-((1-(3-chlorophenyl)-3-(trifluoromethyl)-1H-pyrazol-5-yl)methyl)-4-(4-fluorophenyl)piperazine-1-carboxamide], the affinity corresponds to a Ki of 48 nM. The Ki values of the last two compounds are within 1.5-fold of each other.
On the same count and under the same terms, the result for `COc1ccccc1N1CCN(C(=O)NCc2cc(C(F)(F)F)nn2-c2cccc(Cl)c2)CC1` [Example 48, N-((1-(3-chlorophenyl)-3-(trifluoromethyl)-1H-pyrazol-5-yl)methyl)-4-(2-methoxyphenyl)piperazine-1-carboxamide] reads 61 nM; that for `COc1cccc(N2CCN(C(=O)NCc3cc(C(F)(F)F)nn3-c3cccc(Cl)c3)CC2)c1` [Example 49, N-((1-(3-chlorophenyl)-3-(trifluoromethyl)-1H-pyrazol-5-yl)methyl)-4-(3-methoxyphenyl)piperazine-1-carboxamide], 35 nM.
Same read-out and setting: as for `COc1ccc(N2CCN(C(=O)NCc3cc(C(F)(F)F)nn3-c3cccc(Cl)c3)CC2)cc1` [Example 50, N-((1-(3-chlorophenyl)-3-(trifluoromethyl)-1H-pyrazol-5-yl)methyl)-4-(4-methoxyphenyl)piperazine-1-carboxamide], the figure is 63 nM; as for `O=C(NCc1cc(C(F)(F)F)nn1-c1cccc(Cl)c1)N1CCN(c2ccccc2Cl)CC1` [Example 51, 4-(2-chlorophenyl)-N-((1-(3-chlorophenyl)-3-(trifluoromethyl)-1H-pyrazol-5-yl)methyl)piperazine-1-carboxamide], 7 nM.
Still for that read-out and setting: as for `CC(C)(C)c1cc(CNC(=O)N2CCN(c3cccc(Cl)c3)CC2)n(-c2cccc(Cl)c2)n1` [Example 52, N-((3-tert-butyl-1-(3-chlorophenyl)-1H-pyrazol-5-yl)methyl)-4-(3-chlorophenyl)piperazine-1-carboxamide], the figure is 36 nM.
Compound `CC(C)(C)c1cc(CNC(=O)N2CCN(c3ccc(Cl)cc3)CC2)n(-c2cccc(Cl)c2)n1` [Example 53, N-((3-tert-butyl-1-(3-chlorophenyl)-1H-pyrazol-5-yl)methyl)-4-(4-chlorophenyl)piperazine-1-carboxamide] displayed a Ki of 42 nM.
Still for that read-out and setting: as for `O=C(NCc1cc(C(F)(F)F)nn1-c1cccc(Cl)c1)N1CCN(c2ccc(Cl)cc2)CC1` [Example 54, 4-(4-chlorophenyl)-N-((1-(3-chlorophenyl)-3-(trifluoromethyl)-1H-pyrazol-5-yl)methyl)piperazine-1-carboxamide], the figure is 56 nM; as for `O=C(NCc1cc(C(F)(F)F)nn1-c1cccc(Cl)c1)N1CCN(c2ncccc2C(F)(F)F)CC1` [Example 56, N-((1-(3-chlorophenyl)-3-(trifluoromethyl)-1H-pyrazol-5-yl)methyl)-4-(3-(trifluoromethyl)pyridin-2-yl)piperazine-1-carboxamide], 4 nM.
Still for that read-out and setting: as for “N-((1-(3-chlorophenyl)-3-(trifluoromethyl)-1H-pyrazol-5-yl)methyl)-4-(1-(4-fluorophenyl)ethyl)piperazine-1-carboxamide [Example 22]”, the figure is 41 nM.
